How the values were obtained:
Assay in all cases: relative viability (nuclei count vs DMSO), 5 days (fraction); higher = more cells survive
NCI-H1975 = system: NCI-H1975
How it was run: (§1)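 For relative viability, nuclei counts in treated wells were divided by those in vehicle wells. Lung cancer cell lines had been pin-tool dosed in 1536-well plates the day after seeding and cultured for 5 days, then fixed and stained in one step (final 0.05% Triton X-100, 1% formaldehyde, 1 ug/ml Hoechst) and imaged at 4×. Doses were one drug alone or a fixed anchor-drug dose plus five library-drug doses (not always all listed) in √10 steps, and values are duplicate-plate medians.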

COR-L 105 = system: COR-L 105
How it was run: as §1

NCI-H1993 = system: NCI-H1993
How it was run: as §1

NCI-H1944 = system: NCI-H1944
How it was run: as §1

HCC-78 = system: HCC-78
How it was run: as §1

SK-LU-1 = system: SK-LU-1
How it was run: as §1

NCI-H1734 = system: NCI-H1734
How it was run: as §1

LU99A = system: LU99A
How it was run: as §1

NCI-H596 = system: NCI-H596
How it was run: as §1

NCI-H1650 = system: NCI-H1650
How it was run: as §1

HCC-366 = system: HCC-366
How it was run: as §1

LC-2-ad = system: LC-2-ad
How it was run: as §1

EKVX = system: EKVX
How it was run: as §1

201T = system: 201T
How it was run: as §1

BEN = system: BEN
How it was run: as §1

NCI-H3122 = system: NCI-H3122
How it was run: as §1

HCC-15 = system: HCC-15
How it was run: as §1

COR-L23 = system: COR-L23
How it was run: as §1

HCC-827 = system: HCC-827
How it was run: as §1

NCI-H1755 = system: NCI-H1755
How it was run: as §1

HARA = system: HARA
How it was run: as §1

LXF-289 = system: LXF-289
How it was run: as §1

RERF-LC-KJ = system: RERF-LC-KJ
How it was run: as §1

Compound `O=c1[nH]c2ccccc2n1C1CCN(CCCC(c2ccc(F)cc2)c2ccc(F)cc2)CC1` [Pimozide] + Nc1ncn([C@H]2C[C@H](O)[C@@H](CO)O2)c(=O)n1 [Decitabine] (partner 2 µM) has a relative viability (NCI-H1975; first compound 0.08 µM) of 0.347, a relative viability (NCI-H1975; first compound 0.253 µM) of 0.387 and a relative viability (NCI-H1975; first compound 0.8 µM) of 0.391. For the same compound, the relative viability (NCI-H1975; first compound 2.53 µM) was 0.368, the relative viability (NCI-H1975; first compound 8 µM) was 0.419 and the relative viability (COR-L 105; first compound 0.08 µM) was 0.49. The relative viability (COR-L 105; first compound 0.253 µM) was 0.702, the relative viability (COR-L 105; first compound 0.8 µM) was 0.623 and the relative viability (COR-L 105; first compound 2.53 µM) was 0.659. For the same compound, the relative viability (COR-L 105; first compound 8 µM) was 0.701, the relative viability (NCI-H1993; first compound 0.08 µM) was 0.561 and the relative viability (NCI-H1993; first compound 0.253 µM) was 0.56. The relative viability (NCI-H1993; first compound 0.8 µM) was 0.566, the relative viability (NCI-H1993; first compound 2.53 µM) was 0.556 and the relative viability (NCI-H1993; first compound 8 µM) was 0.642. For the same compound, the relative viability (NCI-H1944; first compound 0.08 µM) was 0.398, the relative viability (NCI-H1944; first compound 2.53 µM) was 0.436 and the relative viability (NCI-H1944; first compound 8 µM) was 0.393. The relative viability (HCC-78; first compound 0.08 µM) was 0.735, the relative viability (HCC-78; first compound 0.8 µM) was 0.671 and the relative viability (HCC-78; first compound 2.53 µM) was 0.671. It also gave a relative viability (HCC-78; first compound 8 µM) of 0.702, a relative viability (SK-LU-1; first compound 0.08 µM) of 0.631 and a relative viability (SK-LU-1; first compound 0.253 µM) of 0.741. For the same compound, the relative viability (SK-LU-1; first compound 0.8 µM) was 0.6, the relative viability (SK-LU-1; first compound 2.53 µM) was 0.583 and the relative viability (SK-LU-1; first compound 8 µM) was 0.49. For the same compound, the relative viability (NCI-H1734; first compound 0.08 µM) was 0.51, the relative viability (NCI-H1734; first compound 0.253 µM) was 0.489 and the relative viability (NCI-H1734; first compound 0.8 µM) was 0.525. For the same compound, the relative viability (NCI-H1734; first compound 2.53 µM) was 0.431, the relative viability (NCI-H1734; first compound 8 µM) was 0.509 and the relative viability (LU99A; first compound 0.08 µM) was 0.979. It also gave a relative viability (LU99A; first compound 0.8 µM) of 0.97, a relative viability (LU99A; first compound 2.53 µM) of 0.829 and a relative viability (LU99A; first compound 8 µM) of 0.847. The relative viability (NCI-H596; first compound 0.08 µM) was 0.97, the relative viability (NCI-H596; first compound 0.253 µM) was 0.931 and the relative viability (NCI-H596; first compound 0.8 µM) was 0.986. For the same compound, the relative viability (NCI-H596; first compound 2.53 µM) was 0.85, the relative viability (NCI-H596; first compound 8 µM) was 1.08 and the relative viability (NCI-H1650; first compound 0.08 µM) was 0.287. It also gave a relative viability (NCI-H1650; first compound 0.253 µM) of 0.485, a relative viability (NCI-H1650; first compound 0.8 µM) of 0.315 and a relative viability (NCI-H1650; first compound 2.53 µM) of 0.404. It also gave a relative viability (NCI-H1650; first compound 8 µM) of 0.405, a relative viability (HCC-366; first compound 0.08 µM) of 0.324 and a relative viability (HCC-366; first compound 0.253 µM) of 0.34. The relative viability (HCC-366; first compound 0.8 µM) was 0.285, the relative viability (HCC-366; first compound 2.53 µM) was 0.346 and the relative viability (HCC-366; first compound 8 µM) was 0.296. The relative viability (LC-2-ad; first compound 0.08 µM) was 0.776, the relative viability (LC-2-ad; first compound 0.253 µM) was 0.697 and the relative viability (LC-2-ad; first compound 0.8 µM) was 0.854. The relative viability (LC-2-ad; first compound 2.53 µM) was 0.868, the relative viability (LC-2-ad; first compound 8 µM) was 0.837 and the relative viability (EKVX; first compound 0.253 µM) was 0.333. The relative viability (EKVX; first compound 0.8 µM) was 0.341, the relative viability (EKVX; first compound 2.53 µM) was 0.349 and the relative viability (EKVX; first compound 8 µM) was 0.364. The relative viability (201T; first compound 0.08 µM) was 0.827, the relative viability (201T; first compound 0.253 µM) was 0.846 and the relative viability (201T; first compound 0.8 µM) was 0.829. The relative viability (201T; first compound 2.53 µM) was 0.844, the relative viability (201T; first compound 8 µM) was 0.711 and the relative viability (BEN; first compound 0.08 µM) was 0.805. It also gave a relative viability (BEN; first compound 0.253 µM) of 0.71, a relative viability (BEN; first compound 0.8 µM) of 0.757 and a relative viability (BEN; first compound 2.53 µM) of 0.62. It also gave a relative viability (BEN; first compound 8 µM) of 0.767, a relative viability (NCI-H3122; first compound 0.08 µM) of 0.435 and a relative viability (NCI-H3122; first compound 0.253 µM) of 0.392. It also gave a relative viability (NCI-H3122; first compound 0.8 µM) of 0.418, a relative viability (NCI-H3122; first compound 2.53 µM) of 0.413 and a relative viability (NCI-H3122; first compound 8 µM) of 0.416. For the same compound, the relative viability (HCC-15; first compound 0.08 µM) was 0.658, the relative viability (HCC-15; first compound 0.253 µM) was 0.629 and the relative viability (HCC-15; first compound 0.8 µM) was 0.452. It also gave a relative viability (HCC-15; first compound 2.53 µM) of 0.551, a relative viability (HCC-15; first compound 8 µM) of 0.66 and a relative viability (COR-L23; first compound 0.08 µM) of 0.409. It also gave a relative viability (COR-L23; first compound 0.253 µM) of 0.446, a relative viability (COR-L23; first compound 0.8 µM) of 0.411 and a relative viability (COR-L23; first compound 2.53 µM) of 0.424. It also gave a relative viability (COR-L23; first compound 8 µM) of 0.495, a relative viability (HCC-827; first compound 0.253 µM) of 0.284 and a relative viability (HCC-827; first compound 0.8 µM) of 0.348. The relative viability (HCC-827; first compound 2.53 µM) was 0.334, the relative viability (HCC-827; first compound 8 µM) was 0.32 and the relative viability (NCI-H1755; first compound 0.08 µM) was 0.675. It also gave a relative viability (NCI-H1755; first compound 0.253 µM) of 0.659, a relative viability (NCI-H1755; first compound 0.8 µM) of 0.624 and a relative viability (NCI-H1755; first compound 2.53 µM) of 0.684. For the same compound, the relative viability (NCI-H1755; first compound 8 µM) was 0.69, the relative viability (HARA; first compound 0.08 µM) was 0.535 and the relative viability (HARA; first compound 0.253 µM) was 0.586. For the same compound, the relative viability (HARA; first compound 0.8 µM) was 0.476, the relative viability (HARA; first compound 2.53 µM) was 0.528 and the relative viability (HARA; first compound 8 µM) was 0.617. The relative viability (LXF-289; first compound 0.08 µM) was 0.378, the relative viability (LXF-289; first compound 0.253 µM) was 0.4 and the relative viability (LXF-289; first compound 0.8 µM) was 0.324. For the same compound, the relative viability (LXF-289; first compound 2.53 µM) was 0.357, the relative viability (LXF-289; first compound 8 µM) was 0.39 and the relative viability (RERF-LC-KJ; first compound 0.08 µM) was 0.674. The relative viability (RERF-LC-KJ; first compound 0.253 µM) was 0.562, the relative viability (RERF-LC-KJ; first compound 0.8 µM) was 0.63 and the relative viability (RERF-LC-KJ; first compound 2.53 µM) was 0.401. The relative viability (RERF-LC-KJ; first compound 8 µM) was 0.544.
